{"source": "paper PMC9551036", "about": "“A selective and orally bioavailable VHL-recruiting PROTAC achieves SMARCA2 degradation in vivo” (Nature Communications, 2022)", "key": {"[1]": {"molecular_target": "T1, SMARCA2/4 (Homo sapiens, UniProt P51532)", "T1 construct": "endogenous in cells; host or cells: HCT116, RKO", "T1 sequence (P51532 whole entry)": "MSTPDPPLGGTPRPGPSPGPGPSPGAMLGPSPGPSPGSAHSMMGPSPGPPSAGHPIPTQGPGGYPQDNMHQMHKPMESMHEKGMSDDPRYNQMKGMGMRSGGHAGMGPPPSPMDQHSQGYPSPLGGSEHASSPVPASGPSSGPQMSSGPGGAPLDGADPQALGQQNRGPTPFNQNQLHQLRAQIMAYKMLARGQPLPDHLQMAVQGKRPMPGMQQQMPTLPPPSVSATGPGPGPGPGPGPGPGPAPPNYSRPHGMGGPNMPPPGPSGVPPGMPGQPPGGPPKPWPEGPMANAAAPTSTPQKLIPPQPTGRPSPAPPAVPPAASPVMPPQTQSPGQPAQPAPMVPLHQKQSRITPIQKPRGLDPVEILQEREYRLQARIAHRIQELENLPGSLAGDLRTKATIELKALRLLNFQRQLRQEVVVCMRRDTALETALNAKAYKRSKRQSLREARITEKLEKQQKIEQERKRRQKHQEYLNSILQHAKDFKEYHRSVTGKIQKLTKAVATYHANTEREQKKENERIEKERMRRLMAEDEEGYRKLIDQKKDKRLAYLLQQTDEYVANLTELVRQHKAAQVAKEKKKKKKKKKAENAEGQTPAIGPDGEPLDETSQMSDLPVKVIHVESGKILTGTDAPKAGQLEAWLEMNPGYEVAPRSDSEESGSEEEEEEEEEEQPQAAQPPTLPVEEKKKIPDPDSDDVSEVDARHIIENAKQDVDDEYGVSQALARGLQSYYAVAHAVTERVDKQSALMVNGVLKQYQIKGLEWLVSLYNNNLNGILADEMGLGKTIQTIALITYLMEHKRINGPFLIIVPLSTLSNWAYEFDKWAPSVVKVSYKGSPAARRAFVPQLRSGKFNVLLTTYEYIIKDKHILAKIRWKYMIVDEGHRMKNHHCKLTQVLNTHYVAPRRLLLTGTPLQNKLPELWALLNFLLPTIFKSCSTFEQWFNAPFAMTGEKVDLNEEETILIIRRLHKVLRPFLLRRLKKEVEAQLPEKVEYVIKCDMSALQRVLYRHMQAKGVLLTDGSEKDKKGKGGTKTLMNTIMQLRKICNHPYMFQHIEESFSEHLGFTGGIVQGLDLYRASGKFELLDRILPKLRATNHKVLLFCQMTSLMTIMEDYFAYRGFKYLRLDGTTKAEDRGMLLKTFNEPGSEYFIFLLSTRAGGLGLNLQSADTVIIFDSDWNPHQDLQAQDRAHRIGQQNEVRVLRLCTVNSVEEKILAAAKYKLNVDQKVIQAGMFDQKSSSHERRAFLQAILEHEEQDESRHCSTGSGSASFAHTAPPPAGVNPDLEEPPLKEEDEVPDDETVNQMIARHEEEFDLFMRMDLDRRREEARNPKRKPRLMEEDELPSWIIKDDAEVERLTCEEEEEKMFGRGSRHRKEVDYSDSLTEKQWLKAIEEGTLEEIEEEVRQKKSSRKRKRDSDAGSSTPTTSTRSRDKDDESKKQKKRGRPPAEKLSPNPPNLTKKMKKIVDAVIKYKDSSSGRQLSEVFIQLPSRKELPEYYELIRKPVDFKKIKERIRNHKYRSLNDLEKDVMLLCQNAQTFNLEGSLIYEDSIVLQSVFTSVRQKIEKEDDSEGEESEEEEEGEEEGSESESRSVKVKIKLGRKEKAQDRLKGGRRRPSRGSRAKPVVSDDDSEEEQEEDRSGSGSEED", "assay": "SMARCA2/4 half-life (cycloheximide) and re-synthesis after compound 6 and VHL binder in HCT116 and RKO", "type": "cell-based", "conditions": "for K (one phase exponential decay) / Tau (one phase exponential decay): CHX", "method": "(§1) 130,000–200,000 cells were seeded in 24-well plates and incubated until settled down or overnight. Compounds were dissolved in DMSO and added to cells in indicated concentrations using a digital dispenser following an optional media change. […] For SMARCA2/4 half-life determination, 150,000 or 200,000 cells were seeded in 24-well plates. […] For SMARCA2/4 re-synthesis measurements, 200,000 cells were seeded in 24-well plates. The next day, 100 nM compound 6 was added for 4 h to degrade SMARCA2/4, and a sample was taken as baseline for normalisation. […] Medium was removed, cells were washed with PBS and lysed with 80 µl Lysis Buffer (MSD Tris Lysis Buffer (#R60TX-2) + Halt Inhibitor Cocktail (100x) + Benzonase 0.5 µL/ml). Samples were frozen at −80 °C and thawed at room temperature before use. Samples were transferred to a V-bottom plate and insoluble debris was pelleted by centrifugation for 5 min at maximum speed. The supernatant was transferred to a fresh plate. Master Mix and Ladder were prepared according to manufacturer’s instructions for 12–230 kDa Wes Separation Module, 8 × 25 capillary cartridges, Protein Simple #SM-W004 with Anti-Rabbit Detection Module for Wes, Peggy Sue or Sally Sue, Protein Simple #DM-001. 4.8 µl lysate were mixed with 1.2 µl Master Mix to achieve a protein concentration of ~0.5 µg/µl. Antibodies were diluted in Antibody Diluent II (SMARCA2 Sigma #HPA029981 RRID:AB_10602406 1:25–100, SMARCA4 Cell Signalling #49360 clone D1Q7F RRID:AB_2728743 1:15–120 or Abcam #ab110641 clone EPNCIR111A RRID:AB_10861578 1:60, GAPDH Abcam #ab9485 RRID:AB_307275 1:250). Wes plates were prepared and run according to manufacturer’s instructions. Proteins were quantified with accompanying Compass Software. SMARCA2/4 protein levels were normalised to GAPDH. […] Where applicable, curves were fitted using a 4-parametric logistic model."}, "[2]": {"molecular_target": "T2, SMARCA2/4 (Homo sapiens, UniProt P51531)", "T2 construct": "endogenous in cells; host or cells: HCT116, RKO", "T2 sequence (P51531 whole entry)": "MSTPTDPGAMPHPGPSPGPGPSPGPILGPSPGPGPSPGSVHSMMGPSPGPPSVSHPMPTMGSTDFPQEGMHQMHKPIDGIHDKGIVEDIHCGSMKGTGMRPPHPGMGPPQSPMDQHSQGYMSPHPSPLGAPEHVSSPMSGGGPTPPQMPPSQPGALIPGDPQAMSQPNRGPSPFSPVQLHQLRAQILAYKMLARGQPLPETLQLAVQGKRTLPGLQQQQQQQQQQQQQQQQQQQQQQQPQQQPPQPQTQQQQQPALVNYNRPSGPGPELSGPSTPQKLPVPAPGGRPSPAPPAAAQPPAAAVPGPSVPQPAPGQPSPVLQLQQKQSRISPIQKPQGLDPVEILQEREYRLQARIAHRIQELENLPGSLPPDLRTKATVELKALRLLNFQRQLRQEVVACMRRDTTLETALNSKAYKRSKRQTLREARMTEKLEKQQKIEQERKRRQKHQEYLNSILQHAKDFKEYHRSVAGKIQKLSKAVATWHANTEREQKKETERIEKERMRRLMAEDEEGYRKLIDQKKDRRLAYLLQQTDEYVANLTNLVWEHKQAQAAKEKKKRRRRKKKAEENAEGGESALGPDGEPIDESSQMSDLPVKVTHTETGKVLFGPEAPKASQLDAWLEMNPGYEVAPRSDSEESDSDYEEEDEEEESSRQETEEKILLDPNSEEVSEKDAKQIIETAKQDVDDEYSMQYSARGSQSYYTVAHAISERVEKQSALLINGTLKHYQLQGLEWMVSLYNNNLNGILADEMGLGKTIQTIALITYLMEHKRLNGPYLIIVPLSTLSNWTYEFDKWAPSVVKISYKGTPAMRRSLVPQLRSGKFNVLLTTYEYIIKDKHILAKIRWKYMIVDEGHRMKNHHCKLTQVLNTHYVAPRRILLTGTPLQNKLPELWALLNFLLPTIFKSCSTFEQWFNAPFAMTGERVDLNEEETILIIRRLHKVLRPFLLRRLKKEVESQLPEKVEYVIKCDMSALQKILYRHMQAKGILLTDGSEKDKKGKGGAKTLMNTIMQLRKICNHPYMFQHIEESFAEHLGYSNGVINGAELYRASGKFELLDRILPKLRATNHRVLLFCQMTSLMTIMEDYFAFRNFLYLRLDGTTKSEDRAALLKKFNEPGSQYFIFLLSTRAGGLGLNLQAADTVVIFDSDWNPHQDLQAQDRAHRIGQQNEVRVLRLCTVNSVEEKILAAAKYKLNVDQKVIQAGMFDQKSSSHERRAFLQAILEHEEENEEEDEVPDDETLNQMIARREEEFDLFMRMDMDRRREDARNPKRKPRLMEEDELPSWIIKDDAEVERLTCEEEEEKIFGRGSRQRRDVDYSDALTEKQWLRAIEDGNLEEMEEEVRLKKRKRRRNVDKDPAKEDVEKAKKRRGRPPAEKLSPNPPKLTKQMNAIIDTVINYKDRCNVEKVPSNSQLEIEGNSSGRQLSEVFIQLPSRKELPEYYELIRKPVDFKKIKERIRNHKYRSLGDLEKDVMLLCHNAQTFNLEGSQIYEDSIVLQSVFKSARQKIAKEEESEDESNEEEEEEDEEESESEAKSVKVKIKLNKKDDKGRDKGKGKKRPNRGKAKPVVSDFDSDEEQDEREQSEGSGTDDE", "assay": "SMARCA2/4 half-life (cycloheximide) and re-synthesis after compound 6 and VHL binder in HCT116 and RKO", "type": "cell-based", "conditions": "for K (one phase exponential decay) / Tau (one phase exponential decay): CHX", "method": "as §1"}, "[3]": {"molecular_target": "VCB: PROTAC: SMARCA2^BD ternary complex (Homo sapiens, UniProt P40337+P51531)", "sequence (P51531 with tags, fused parts or gaps isoform P51531-2)": "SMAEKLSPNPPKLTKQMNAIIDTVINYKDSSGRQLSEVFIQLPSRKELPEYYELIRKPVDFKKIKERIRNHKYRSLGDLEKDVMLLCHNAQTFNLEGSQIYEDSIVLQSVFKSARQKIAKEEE", "sequence (P40337 54-213)": "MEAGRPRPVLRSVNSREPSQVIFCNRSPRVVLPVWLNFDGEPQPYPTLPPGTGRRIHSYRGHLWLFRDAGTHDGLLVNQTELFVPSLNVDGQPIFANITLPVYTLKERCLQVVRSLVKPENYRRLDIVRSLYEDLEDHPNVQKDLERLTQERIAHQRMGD", "sequence (Q15369 17-112 partner)": "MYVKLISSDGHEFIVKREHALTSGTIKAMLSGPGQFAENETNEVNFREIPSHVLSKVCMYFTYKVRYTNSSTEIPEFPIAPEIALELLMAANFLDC", "sequence (Q15370 1-104 partner)": "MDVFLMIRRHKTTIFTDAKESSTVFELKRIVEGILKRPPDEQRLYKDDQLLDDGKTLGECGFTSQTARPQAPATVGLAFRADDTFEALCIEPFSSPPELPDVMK", "assay": "TR-FRET ternary complex affinity and cooperativity, SMARCA2", "type": "binding", "set-up": "P51531-2, residues 1373-1493 with additional N-terminal SM residues; GST (TEV site) (N); His6 (TEV site) (N, cleaved yes); made in house; host or cells: SMARCA2^BD: Escherichia coli BL21(DE3)"}, "[4]": {"assay": "Bidirectional permeability measurement in Caco-2 cells", "type": "in vitro ADME", "conditions": "human", "method": "Bidirectional permeability of test compounds across a Caco-2 cell monolayer was measured as described[43] with a modification of preincubation time[44]: Briefly, Caco-2 cells were seeded onto Transwell inserts (#3379, Corning, Wiesbaden, Germany) at a density of 160000 cells/cm^2 and cultured in DMEM (high glucose) containing 10% fetal bovine serum for 14–21 days. Cells were incubated with culture media containing 1 µM test compound for 24 h. […] Samples were taken at different time points for up to 2 h. Test compound in the samples was quantified with LC-MS/MS. To elucidate the role of drug transporter P-gp in the transcellular transport, permeability measurement was performed in the absence and presence of the selective P-gp inhibitor zosuquidar (5 µM final concentration). Apparent permeability coefficients (Papp,AB, Papp,BA) were calculated as follows:1 Papp,AB=Q_AB/C0×s×t 2 Papp,BA=Q_BA/C0×s×t where Q is the amount of compound recovered in the receiver compartment after the incubation time t, C0 the initial compound concentration given to the donor compartment, and s the surface area of the Transwell inserts. Efflux ratio is calculated as the quotient of Papp,BA (mean of duplicate) to Papp,AB (mean of duplicate). […] In addition, Transepithelial electrical resistance (TEER) values were measured for each plate before the permeability assay. All three parameters (efflux of the reference substrates, Papp values of the low permeable compound, and TEER values) were used to ensure the quality of the assays."}, "[5]": {"tested_on": "VCB: PROTAC: SMARCA2^BD ternary complex", "assay": "TR-FRET ternary complex affinity and cooperativity, SMARCA2", "type": "binding, human", "conditions": "ratio TR-FRET EC50 / TR-FRET EC50 +VCB measured in the same run, SMARCA2BD"}, "[6]": {"molecular_target": "T3, VCB: PROTAC: SMARCA2^BD ternary complex (Homo sapiens, UniProt P51531)", "T3 construct": "P51531-2, residues 1373-1493 with additional N-terminal SM residues; GST (TEV site) (N); His6 (TEV site) (N, cleaved yes); made in house; host or cells: SMARCA2^BD: Escherichia coli BL21(DE3)", "T3 sequence (P51531 with tags, fused parts or gaps isoform P51531-2)": "as the sequence (P51531 with tags, fused parts or gaps isoform P51531-2) above", "assay": "TR-FRET ternary complex affinity and cooperativity, SMARCA2", "type": "binding"}, "[7]": {"assay": "Microsomal stability", "type": "in vitro ADME", "method": "[…] Reactions were terminated by addition of acetonitrile and precipitates separated by centrifugation. Compound concentrations in supernatants were measured by HPLC-MS/MS and clearance was calculated from compound half-lives using the well-stirred liver model."}, "[8]": {"assay": "Solubility testing", "type": "physicochemical", "conditions": "buffer, kinetic from dmso stock", "method": "Dilution into a 1:1 mixture of acetonitrile and water was used as reference. After 24 h, the incubations were filtrated, and the filtrate was analyzed by LC-UV."}}, "note": "“And” between values parts separate entries of the source, which are not always exact repeats. Equal entries are not always repeated. Where two headings read alike, the source gives them in different places.", "data": [{"smiles": "C[C@@H]1C[C@@H]([C@H](O)CC2CC(=O)NC(=O)C2)C(=O)[C@@H](C)C1", "note": "[CHX]", "values": [{"measurement": "K (one phase exponential decay)", "setting": "[1]; HCT116, SM4", "value": 0.01934}, {"measurement": "Tau (one phase exponential decay)", "setting": "[1]; HCT116, SM4", "value": 51.7, "unit": "h"}, {"measurement": "fraction protein remaining", "setting": "[1]; HCT116, SM4, Time CHX 1 h", "value": "0.9048 and 0.6354 and 0.681"}, {"measurement": "fraction protein remaining", "setting": "[1]; HCT116, SM4, Time CHX 2 h", "value": "1.063 and 0.7806 and 0.7981"}, {"measurement": "fraction protein remaining", "setting": "[1]; HCT116, SM4, Time CHX 6 h", "value": "0.982 and 0.7891 and 0.769"}, {"measurement": "fraction protein remaining", "setting": "[1]; HCT116, SM4, Time CHX 18 h", "value": "0.6017 and 0.6088 and 0.5084"}, {"measurement": "fraction protein remaining", "setting": "[1]; HCT116, SM4, Time CHX 20 h", "value": "0.6375 and 0.6135 and 0.453"}, {"measurement": "fraction protein remaining", "setting": "[1]; HCT116, SM4, Time CHX 24 h", "value": "0.6439 and 0.582 and 0.7075"}, {"measurement": "K (one phase exponential decay)", "setting": "[1]; RKO, SM4", "value": 0.05848}, {"measurement": "Tau (one phase exponential decay)", "setting": "[1]; RKO, SM4", "value": 17.1, "unit": "h"}, {"measurement": "fraction protein remaining", "setting": "[1]; RKO, SM4, Time CHX 1 h", "value": "0.6419 and 0.7642 and 0.7888"}, {"measurement": "fraction protein remaining", "setting": "[1]; RKO, SM4, Time CHX 2 h", "value": "0.6538 and 0.6196 and 0.6177"}, {"measurement": "fraction protein remaining", "setting": "[1]; RKO, SM4, Time CHX 6 h", "value": "0.4106 and 0.4086 and 0.4599"}, {"measurement": "fraction protein remaining", "setting": "[1]; RKO, SM4, Time CHX 18 h", "value": "0.3137 and 0.4693 and 0.3349"}, {"measurement": "fraction protein remaining", "setting": "[1]; RKO, SM4, Time CHX 20 h", "value": "0.3111 and 0.4007 and 0.3018"}, {"measurement": "fraction protein remaining", "setting": "[1]; RKO, SM4, Time CHX 24 h", "value": "0.1564 and 0.2093 and 0.1216"}, {"measurement": "K (one phase exponential decay)", "setting": "[2]; HCT116, SM2", "value": 0.01756}, {"measurement": "Tau (one phase exponential decay)", "setting": "[2]; HCT116, SM2", "value": 56.94, "unit": "h"}, {"measurement": "fraction protein remaining", "setting": "[2]; HCT116, SM2, Time CHX 1 h", "value": "0.9134 and 0.9119 and 0.8363"}, {"measurement": "fraction protein remaining", "setting": "[2]; HCT116, SM2, Time CHX 2 h", "value": "1.19 and 0.984 and 1.003"}, {"measurement": "fraction protein remaining", "setting": "[2]; HCT116, SM2, Time CHX 6 h", "value": "1.2436 and 0.9973 and 0.8745"}, {"measurement": "fraction protein remaining", "setting": "[2]; HCT116, SM2, Time CHX 18 h", "value": "0.8497 and 0.6816 and 0.6174"}, {"measurement": "fraction protein remaining", "setting": "[2]; HCT116, SM2, Time CHX 20 h", "value": "0.8836 and 0.7383 and 0.515"}, {"measurement": "K (one phase exponential decay)", "setting": "[2]; RKO, SM2", "value": 0.03021}, {"measurement": "Tau (one phase exponential decay)", "setting": "[2]; RKO, SM2", "value": 33.1, "unit": "h"}, {"measurement": "fraction protein remaining", "setting": "[2]; RKO, SM2, Time CHX 1 h", "value": "0.6694 and 0.8157 and 0.6659"}, {"measurement": "fraction protein remaining", "setting": "[2]; RKO, SM2, Time CHX 2 h", "value": "0.8737 and 0.9723 and 0.8342"}, {"measurement": "fraction protein remaining", "setting": "[2]; RKO, SM2, Time CHX 6 h", "value": "0.9472 and 0.9944 and 0.8492"}, {"measurement": "fraction protein remaining", "setting": "[2]; RKO, SM2, Time CHX 18 h", "value": "0.7207 and 0.4914 and 0.6074"}, {"measurement": "fraction protein remaining", "setting": "[2]; RKO, SM2, Time CHX 20 h", "value": "0.6704 and 0.4369 and 0.5438"}]}, {"smiles": "O=c1nc2n(C3CCCC3)c3cc(C4CCNCC4)ccc3n2c2cccc(Br)c12", "note": "[compound 4]", "values": [{"measurement": "EC50", "setting": "[3]; TR-FRET Ternary SMARCA2BD EC50 (PROTAC + VCB), TR-FRET competition for SMARCA2BD, + VCB, mean ± SD", "value": 74, "unit": "nM"}, {"measurement": "EC50", "setting": "[3]; Ternary SMARCA2 BD EC50 (PROTAC + VCB), PROTAC + VCB, individual replicates", "value": 73.5, "unit": "nM"}, {"measurement": "Papp A→B at 1 µM", "setting": "[4]; Caco-2, pH 7.4, Caco-2, a to b, read-out: Caco-2 Pab", "value": 2.55, "unit": "×10⁻⁶ cm/s"}, {"measurement": "Papp B→A at 1 µM", "setting": "[4]; Caco-2, pH 7.4, Caco-2, b to a, read-out: Caco-2 Pba", "value": 32.6, "unit": "×10⁻⁶ cm/s"}, {"measurement": "efflux ratio at 2 h, 1 µM", "setting": "[4]; Caco-2, pH 7.4, Caco-2, read-out: Caco-2 Efflux ratio", "value": 12.8}, {"measurement": "cooperativity α (SMARCA2BD)", "setting": "[5]", "value": 1.2}, {"measurement": "EC50", "setting": "[6]; SMARCA2 BD EC50, binary, PROTAC alone, individual replicates", "value": 88.4, "unit": "nM"}, {"measurement": "EC50", "setting": "[6]; TR-FRET SMARCA2BD EC50, TR-FRET competition for SMARCA2BD, without VCB, mean ± SD", "value": 88, "unit": "nM"}, {"measurement": "Mic. Stab. Human", "setting": "[7]; human liver microsomes", "value": "<24", "unit": "% QH"}, {"measurement": "Mic. Stab. Human QH", "setting": "[7]; human liver microsomes", "value": "<24.400", "unit": "%"}, {"measurement": "Mic. Stab. Mouse", "setting": "[7]; mouse liver microsomes", "value": "<24", "unit": "% QH"}, {"measurement": "Mic. Stab. Mouse QH", "setting": "[7]; mouse liver microsomes", "value": 25.670, "unit": "%"}, {"measurement": "Mic. Stab. Rat", "setting": "[7]; rat liver microsomes", "value": "<23", "unit": "% QH"}, {"measurement": "Mic. Stab. Rat QH", "setting": "[7]; rat liver microsomes", "value": "<23.080", "unit": "%"}, {"measurement": "solubility at 24 h", "setting": "[8]; pH 4.5, aqueous buffer, pH 4.5, read-out: Solubility pH 4.5", "value": 85, "unit": "µg/mL"}, {"measurement": "solubility at 24 h", "setting": "[8]; pH 6.8, aqueous buffer, pH 6.8, read-out: Solubility pH 6.8", "value": 79, "unit": "µg/mL"}]}]}
